{
  "source": "patent US20200214324A1",
  "about": "“Masking Bitter Flavors” (Board of Supervisors of Louisiana State University and …, priority 2009, published 2020)",
  "key": {"[1]": {"assay": "tasting of turnip greens with mogroside in oil", "format": "in vivo", "conditions": "plain + 100 ppm mogroside in oil (plain: bitter)", "from_the_text": "(§1) Additional examples of the use of Mogroside V to alter the flavors of various consumables, and the experimental results obtained, are summarized in Table I: […]"}, "[2]": {"assay": "tasting of Powerade sports drink with KCl and mogroside", "format": "in vivo", "from_the_text": "as §1"}, "[3]": {"assay": "tasting of soy milk with mogroside", "format": "in vivo", "conditions": "plain + 200 ppm mogroside (plain: beany)", "from_the_text": "as §1"}, "[4]": {"assay": "tasting of pomegranate juice with mogroside", "format": "in vivo", "conditions": "plain + 200 ppm mogroside (plain: tannic)", "from_the_text": "as §1"}, "[5]": {"assay": "tasting of acai ice cream with glycerine and mogroside", "format": "in vivo", "from_the_text": "as §1"}, "[6]": {"assay": "solubility of mogroside in water versus oil", "format": "physicochemical", "from_the_text": "Addition of mogroside will also help improve the flavor of other organ meats and products containing organ meats. Other methods of cooking may also be used. The concentration or amount of mogroside may vary, depending on the method of cooking used. […] By contrast, cooking foods in water may require that higher concentrations of mogroside be used than when cooking in oil, because the mogroside is soluble in the cooking liquid. Higher concentrations of mogroside may be needed to promote osmosis or diffusion into the food. Temperature and cooking time will also have an effect on uptake of mogroside: In general, more mogroside will be taken up by food when the cooking temperature is higher, and also when the cooking time is longer."}},
  "note": "“Also recorded” adds a separate entry of the source.",
  "data": [
    {"substance": "mogroside", "values": [
      {"measurement": "flavor", "setting": "[1]", "result": "semi-sweet; no; also recorded: beaniness"},
      {"measurement": "flavor", "setting": "[2]; plain + 2% KCl + mogroside (without mogroside: bitter)", "result": "salty"},
      {"measurement": "flavor", "setting": "[2]; plain + 3% KCl + mogroside (without mogroside: bitter)", "result": "slightly bitter, salty"},
      {"measurement": "flavor", "setting": "[3]", "result": "decreased beany flavor"},
      {"measurement": "flavor", "setting": "[4]", "result": "sweet"},
      {"measurement": "flavor and texture", "setting": "[5]; + 5% Acai + 5% glycerin + 200 ppm mogroside", "result": "not too much flavor,; also recorded: slightly soft"},
      {"measurement": "flavor and texture", "setting": "[5]; + 5% Acai + 5% glycerin + 300 ppm mogroside", "result": "soft, sweet"},
      {"measurement": "flavor and texture", "setting": "[5]; + 5% Acai + 5% glycerin + 400 ppm mogroside", "result": "sweet, not much flavor,; also recorded: some berry, soft"},
      {"measurement": "flavor and texture", "setting": "[5]; + 10% Acai + 5% glycerin + 200 ppm mogroside", "result": "berry notes, slightly soft"},
      {"measurement": "flavor and texture", "setting": "[5]; + 10% Acai + 5% glycerin + 300 ppm mogroside", "result": "creamy"},
      {"measurement": "flavor and texture", "setting": "[5]; + 10% Acai + 5% glycerin + 400 ppm mogroside", "result": "sweet, jammy, creamy,; also recorded: a bit too sweet"},
      {"measurement": "flavor and texture", "setting": "[5]; + 10% Acai + 10% glycerin + 300 ppm mogroside", "result": "creamy"},
      {"measurement": "flavor and texture", "setting": "[5]; + 10% Acai + 10% glycerin + 400 ppm mogroside", "result": "sweet, jammy, creamy,; also recorded: a bit too sweet"},
      {"measurement": "flavor and texture", "setting": "[5]; plain + glycerine + 300 ppm mogroside (plain + glycerine: tannic, not sweet)", "result": "soft and creamy, sweet,; also recorded: berry, mild; best texture"},
      {"measurement": "flavor and texture", "setting": "[5]; plain ice cream + 300 ppm mogroside (only)", "result": "plain, gummy"},
      {"measurement": "solubility in water compared with oil", "setting": "[6]", "result": "much higher than that in oil"}
    ]}
  ]
}
